Results as given in publication PMC6984732, “Thymidine phosphorylase and prostrate cancer cell proliferation inhibitory activities of synthetic 4-hydroxybenzohydrazides: In vitro, kinetic, and in silico studies” (PLoS ONE, 2020).

Legend:
[1] = molecular target: T1, thymidine phosphorylase (TP) (Escherichia coli, UniProt P07650); assay: Thymidine phosphorylase inhibition assay (spectrophotometric, 290 nm); assay type: biochemical, E. coli; conditions: for inhibition: read-out: Percent Inhibition of thymidine phosphorylase, 10 μL of test compound (0.5 mM in dimethylsulfoxide) per well, <50% regarded inactive; for IC50: recombinant TP expressed in E. coli, substrate thymidine, pH 7.0, 30°C, N.A. = not active, read-out: IC50 (μM ± SEM), thymidine phosphorylase inhibition
T1 construct: purchased Sigma Aldrich, USA; host or cells: E. coli
T1 sequence (P07650 whole entry): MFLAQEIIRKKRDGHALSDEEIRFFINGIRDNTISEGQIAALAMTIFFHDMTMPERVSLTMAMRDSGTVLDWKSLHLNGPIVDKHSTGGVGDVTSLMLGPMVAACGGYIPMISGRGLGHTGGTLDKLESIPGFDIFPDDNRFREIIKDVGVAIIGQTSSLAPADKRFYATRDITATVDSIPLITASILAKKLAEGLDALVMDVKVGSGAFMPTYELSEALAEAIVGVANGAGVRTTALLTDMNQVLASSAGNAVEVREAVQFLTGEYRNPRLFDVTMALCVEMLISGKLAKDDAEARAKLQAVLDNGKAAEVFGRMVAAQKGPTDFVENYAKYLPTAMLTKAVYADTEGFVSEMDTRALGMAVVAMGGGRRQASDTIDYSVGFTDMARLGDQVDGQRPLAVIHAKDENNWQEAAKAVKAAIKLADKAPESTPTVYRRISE
Experimental: Since human TP is not commercially available, we used commercially available recombinant TP (expressed in E. coli) enzyme. Primary sequence of TP is mostly conserved throughout the evolution and mammalian TP share 39% sequence similarity with TP of E. coli. The mammalian enzyme also shares 65–70% similarity with the active site residues of E. coli TP enzyme.
Assay for TP inhibition was performed spectrophotometrically, following the method of Bera et al. with some modifications. Enzyme TP catalyzed the reversible phosphorolysis of thymidine to thymine and 2-deoxyribose-1-phosphate. Reaction mixture contained 150 μL of potassium phosphate buffer (pH 7.0, 50 mM), 20 μL of enzyme (0.058 U/well), and 10 μL of test compound (0.5 mM in dimethylsulfoxide). The reaction mixture was incubated for 10 min at 30°C. 20 μL of substrate (1.5 mM) was then added and change in absorbance was recorded after every minute for a total time period of 10 minutes at 290 nm in ELISA plate reader (Spectra Max-340, Molecular Devices, CA, USA).
We have used the 96-well UV-plates, purchased from Corning (Catalogue No. COSTAR 3635, Lot No. 00912050). […] We then added the substrate (thymidine), and recorded the final readings.

[2] = test system: prostate cancer (PC3) cells; assay: MTT anti-proliferative assay, PC3 cells; assay type: cell-based; conditions: Homo sapiens, PC-3, 48 h incubation, prostate cancer cell line, read-out: IC50 ± Standard Deviation, PC3 Cell Line
Experimental: (§1) Anti-proliferative activity of active compounds was evaluated by using the standard MTT (3-[4,5-dimethylthiazole-2-yl]-2,5-diphenyl-tetrazolium bromide) colorimetric assay in 96-well plate.
(§2) It is a colorimetric assay that measures the reduction of MTT by mitochondrial enzyme i.e. succinate dehydrogenase. The MTT enters into the mitochondria of cell, where it is reduced to an insoluble formazan salt. As reduction of MTT can only occur in metabolically active cells, the level of activity is actually a measure of the viability of the cells.
(§3) Mouse fibroblast normal cell line 3T3, and prostate cancer line (PC3) were cultured separately in DMEM, supplemented with 5% of FBS, 100 IU/mL of penicillin and 100 μg/mL of streptomycin, and kept at 37°C in 5% CO2 incubator. For the preparation of cell culture, 100 μL/well of cell solution (5 x 10^4 cells/mL) was added into 96-well plate. The plate was incubated for overnight, and fresh medium was added after the removal of old medium. The test compounds were also added in different concentrations into the plate, and again incubated for 48 h. After the completion of this incubation period, 200 μL MTT (0.5 mg/mL) was added, and plate was again incubated for 4 h, after this final incubation, 100 μL of DMSO was added to each well. The level of MTT reduction to formazan was evaluated by change in absorbance at 540 nm for 3T3, and 570 nm for PC3 using a micro-plate reader (Spectra Max plus, Molecular Devices, CA, USA).

[3] = test system: mouse fibroblast (3T3) cells; assay: MTT anti-proliferative (cytotoxicity) assay, 3T3 cells; assay type: cell-based; conditions: NIH3T3, 48 h incubation, mouse fibroblast normal cell line, read-out: IC50 ± Standard Deviation, 3T3 Cell Line
Experimental: as §1, §2, §3

[4] = molecular target: T1, thymidine phosphorylase (TP); assay: Kinetic studies on thymidine phosphorylase (Lineweaver-Burk, secondary re-plot, Dixon plot); assay type: biochemical, E. coli; conditions: thymidine as variable substrate; for Inhibition Type: from Lineweaver-Burk plot
Experimental: Kinetic studies were carried out to identify the mechanism of inhibition by these compounds. Inhibitor could bind with the enzyme in multiple ways, such as in competitive, non-competitive, mixed or uncompetitive way. In kinetic assay, the enzyme (0.058 U/200 μL) was incubated with different concentrations of inhibitor for 10 min at 30°C. The reaction was then initiated by adding different concentrations (0.1875–1.5 mM) of substrate (thymidine), and the resulting degradation of thymidine was measured continuously at 290 nm for 10 min on ELISA plate reader. Every experiment was run in triplicate.
Lineweaver-Burk plot was plotted to determine the type of inhibition. This was accomplished by plotting the reciprocal of the rate of reaction against the reciprocal of the substrate concentration. Ki values were determined by secondary re-plot of Lineweaver-Burk plot, and reconfirmed by Dixon plot.

Row | Structure (SMILES) | inhibition [1] [%] | IC50 [1] [µM] | IC50 [2] [µM] | IC50 [3] [µM] | Inhibition Type [4] | Ki ([4]; secondary re-plot of Lineweaver-Burk plot, reconfirmed by Dixon plot, read-out: Ki (μM ± SEM)) [µM]
1 | O=C(NN=Cc1cc(Br)cc(Br)c1O)c1ccc(O)cc1 [Compound 22, N'-[(E)-(3^′,5^′-Dibromo-2^′-hydroxylphenyl)methylidene]-4-hydroxylbenzohydrazide] | 99.9 | 6.8 ± 0.7 | 8.3 ± 0.9 | 9.2 ± 0.1 | Non-competitive | 1.75 ± 0.009
2 | C/C(=N\NC(=O)c1ccc(O)cc1)c1c(O)cccc1O [Compound 27, N'-[(E)-1-(2^′,6^′-Dihydroxylphenyl)ethylidene]-4-hydroxylbenzohydrazide] | 93 | – | > 30 | 26.7 ± 1 | Uncompetitive | –
3 | CC/C(=N\NC(=O)c1ccc(O)cc1)c1cc(O)ccc1O [Compound 29, N'-[(E)-1-(2^′,5^′-Dihydroxylphenyl)propylidene]-4-hydroxylbenzohydrazide] | 99 | 173 ± 1.4 | > 30 | 19.5 ± 0.9 | Uncompetitive | –
